Reference: patent US20110288042A1, “STABLE HIGHLY PURE AZACITIDINE AND PREPARATION METHODS THEREFOR” (CHEMAGIS LTD., priority 2007, published 2011)

Test: Solution stability of 5-azacytidine in water
Assay type: physicochemical
Details: for Area (%) at RRT 1.00 (5-azacytidine) / Area (%) of peak at RRT 0.63 / Area (%) of peak at RRT 2.01 / Total impurities by % area / Area (%) of peak at RRT 1.70: water, about 1.65 mg/ml
Description: The HPLC measurements were performed using a system equipped with an Inertsil C18 column (ODS-2, 5 microns, 250×4.6 mm (ODS-167)). Other parameters of the system were as follows: • Detection: UV detector operated on 242 nm • Column temperature: 20° C. • Run time: 45 minutes • Injection volume: 10 μl • Flow rate: 1.0 ml/minute • Sample set temperature: 5° C. • Sample concentration: about 1.65 mg/ml • Diluent: Mixture of 30% 10 mM ammonium acetate and 70% THF
Analyses were performed using the following mobile phase • Mobile Phase (Eluent) A: 10 mM ammonium acetate • Mobile Phase (Eluent) B: 60% 10 mM ammonium acetate, 40% MeOH
Samples were withdrawn from the flask every consecutive hour and injected to the HPLC system.

Nc1ncn([C@@H]2O[C@H](CO)[C@@H](O)[C@H]2O)c(=O)n1 [5-azacytidine, 4-amino-1-β-D-ribofuranosyl-1,3,5-s-triazine-2(1H)-one]
Solution stability in water (in water): unstable in water over prolonged time periods
Area (%) at RRT 1.00 (5-azacytidine) (0 hours): 97.47%
Area (%) of peak at RRT 0.63 (0 hours): 0.64%
Area (%) of peak at RRT 2.01 (0 hours): 1.59%
Total impurities by % area (0 hours): 2.53%
Area (%) at RRT 1.00 (5-azacytidine) (1 hour): 95.97%
Area (%) of peak at RRT 0.63 (1 hour): 2.16%
Area (%) of peak at RRT 2.01 (1 hour): 1.57%
Total impurities by % area (1 hour): 4.03%
Area (%) at RRT 1.00 (5-azacytidine) (4 hours): 91.38%
Area (%) of peak at RRT 0.63 (4 hours): 6.86%
Area (%) of peak at RRT 2.01 (4 hours): 1.46%
Total impurities by % area (4 hours): 8.62%
Area (%) at RRT 1.00 (5-azacytidine) (8 hours): 83.61%
Area (%) of peak at RRT 0.63 (8 hours): 14.68%
Area (%) of peak at RRT 1.70 (8 hours): 0.23%
Area (%) of peak at RRT 2.01 (8 hours): 1.36%
Total impurities by % area (8 hours): 16.39%
Area (%) at RRT 1.00 (5-azacytidine) (12 hours): 77.01%
Area (%) of peak at RRT 0.63 (12 hours): 21.28%
Area (%) of peak at RRT 1.70 (12 hours): 0.35%
Area (%) of peak at RRT 2.01 (12 hours): 1.25%
Total impurities by % area (12 hours): 22.99%
